Test results published in article PMC12268638, “Structural insights into the catalytic cycle of G protein–coupled receptor kinase 5 and a possible regulatory site for potassium ion” (The Journal of Biological Chemistry, 2025).
Where two headings read alike, the source gives them in different places.

How the values were obtained:
GRK2 = molecular target: T1, GRK2 (Homo sapiens, UniProt P25098, S670A); assay: GRK kinase inhibition assay ([γ-32P]-ATP phosphorylation of tubulin); type: biochemical; settings: substrate tubulin; for IC50: mean ± SD
T1 construct: Full-length WT GRK5, GRK2, or GRK6 at a final concentration of 2 μM; made in house; host or cells: Sf9 insect cells
T1 sequence (P25098 1-689 S670A): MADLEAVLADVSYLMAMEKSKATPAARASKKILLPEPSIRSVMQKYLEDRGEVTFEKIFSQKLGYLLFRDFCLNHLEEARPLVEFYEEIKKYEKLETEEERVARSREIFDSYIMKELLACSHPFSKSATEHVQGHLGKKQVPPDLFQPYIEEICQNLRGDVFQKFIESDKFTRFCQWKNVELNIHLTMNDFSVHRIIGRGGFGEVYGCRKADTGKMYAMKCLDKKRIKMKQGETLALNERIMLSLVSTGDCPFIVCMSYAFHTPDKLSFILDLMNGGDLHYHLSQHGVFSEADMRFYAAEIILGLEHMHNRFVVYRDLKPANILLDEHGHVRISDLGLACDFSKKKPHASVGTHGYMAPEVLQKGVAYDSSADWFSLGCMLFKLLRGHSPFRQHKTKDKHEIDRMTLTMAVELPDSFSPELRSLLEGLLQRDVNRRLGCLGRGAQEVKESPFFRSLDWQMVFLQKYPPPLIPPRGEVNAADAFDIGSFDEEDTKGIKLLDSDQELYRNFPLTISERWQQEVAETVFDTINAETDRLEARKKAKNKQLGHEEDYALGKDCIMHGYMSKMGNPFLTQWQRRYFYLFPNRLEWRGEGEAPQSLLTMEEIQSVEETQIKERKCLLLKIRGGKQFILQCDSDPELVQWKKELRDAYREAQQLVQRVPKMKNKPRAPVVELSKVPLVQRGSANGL
Method: Following the protocol in Ref. ([19]), pMAL-vector plasmids bearing DNA encoding human GRK5WT or GRK5D311N (residues 1–590 followed by a hexahistidine tag) were transfected into E. coli Rosetta (DE3) and induced with isopropyl β-D-1-thiogalactopyranoside. Cells lysed using an Emulsiflex-C3 were treated with DNase I and 1 mM MgCl2 at room temperature for 10 min before centrifugation at 40,000g. GRK5 in the soluble fraction was then loaded onto a Ni^2+–NTA column for metal-affinity purification. Eluted GRK5 fractions were then loaded onto a tandem HiTrap Q HP-HiTrap SP HP column to capture impurities in the Q HP column, and GRK5 was eluted from the SP column using an NaCl concentration gradient from 100 to 600 mM. […] Purified GRK5 was used directly in crystallization or flash-frozen with liquid nitrogen and stored at −80 °C for later usage. Human GRK2S670A and GRK6FL_pal(−) are expressed in Sf9 insect cells and purified as described previously ([26], [31]). The S670A mutation in GRK2 eliminates a heterogenous mitogen-activated kinase phosphorylation site, and GRK6FL_pal(−) was used to remove palmitoylation sites in order to make expression and purification easier.
(§1) GRK inhibition assays were performed in 20 mM Hepes (pH 7.0), 2 mM MgCl2, 0.025% n-dodecyl-β-D-maltoside with 50 nM human GRK5WT as purified previously. […] A range of salt concentrations was added 30 s prior to 5 min reactions initiated by exposing samples to light followed by addition of 5 μM ATP supplemented with radioactive [γ-^32P]-ATP at 60 Ci/mmol (PerkinElmer Life Sciences) at room temperature. […] Reactions were quenched with 4X SDS loading buffer, separated in SDS-PAGE, dried, and read by phosphorimaging and then quantified via a Personal Molecular Imager and Quantity One 1-D Analysis Software. Data were analyzed via GraphPad Prism (GraphPad Software, Inc), and three-parameter dose-dependent curves (Hill coefficient = −1) plotting phosphate transferred against inhibitor concentration were used for the calculation of IC50 values. At least three replicates were obtained to calculate the mean and standard deviation of IC50 values. See Figure S4 for representative raw and processed data.

GRK6 = molecular target: T2, GRK6 (Homo sapiens, UniProt P43250, C561S/C562S/C565S); assay: as above; type: biochemical; settings: substrate tubulin; for IC50: mean ± SD
T2 construct: Full-length WT GRK5, GRK2, or GRK6 at a final concentration of 2 μM; made in house; host or cells: Sf9 insect cells
T2 sequence (P43250 whole entry C561S/C562S/C565S): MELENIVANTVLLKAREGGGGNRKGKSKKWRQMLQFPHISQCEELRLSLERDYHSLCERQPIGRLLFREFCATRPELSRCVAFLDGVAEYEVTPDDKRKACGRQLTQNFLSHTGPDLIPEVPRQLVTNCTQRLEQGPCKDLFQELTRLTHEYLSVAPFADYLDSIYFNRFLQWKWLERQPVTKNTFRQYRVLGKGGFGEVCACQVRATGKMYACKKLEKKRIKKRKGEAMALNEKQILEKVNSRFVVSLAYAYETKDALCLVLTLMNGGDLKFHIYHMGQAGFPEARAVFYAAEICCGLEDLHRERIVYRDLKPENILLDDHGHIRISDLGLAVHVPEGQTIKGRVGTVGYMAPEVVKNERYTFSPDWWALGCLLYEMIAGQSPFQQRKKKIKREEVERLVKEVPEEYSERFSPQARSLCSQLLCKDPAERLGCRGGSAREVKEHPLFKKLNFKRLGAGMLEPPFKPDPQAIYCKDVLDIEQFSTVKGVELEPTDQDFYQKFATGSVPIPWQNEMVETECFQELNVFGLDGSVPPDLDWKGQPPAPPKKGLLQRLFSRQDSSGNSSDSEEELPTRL

GRK5 = molecular target: T3, GRK5 (Homo sapiens, UniProt P34947); assay: Differential scanning fluorimetry thermal shift assay; type: binding; settings: for effect of salt on Tm of ATP·Mg2+-bound GRK5 / effect of salt on Tm of GRK5: increasing salt concentrations; for effect of salt on Tm of GRK5: no ligand; for increase of Tm of GRK5 upon ligand binding: relative to unliganded GRK5, ligand 5 mM, 2 μM GRK5
T3 construct: human GRK5WT or GRK5D311N (residues 1–590 followed by a hexahistidine tag); hexahistidine (C); made in house; host or cells: E. coli Rosetta (DE3)
T3 sequence (P34947 whole entry, the tested form may be a part): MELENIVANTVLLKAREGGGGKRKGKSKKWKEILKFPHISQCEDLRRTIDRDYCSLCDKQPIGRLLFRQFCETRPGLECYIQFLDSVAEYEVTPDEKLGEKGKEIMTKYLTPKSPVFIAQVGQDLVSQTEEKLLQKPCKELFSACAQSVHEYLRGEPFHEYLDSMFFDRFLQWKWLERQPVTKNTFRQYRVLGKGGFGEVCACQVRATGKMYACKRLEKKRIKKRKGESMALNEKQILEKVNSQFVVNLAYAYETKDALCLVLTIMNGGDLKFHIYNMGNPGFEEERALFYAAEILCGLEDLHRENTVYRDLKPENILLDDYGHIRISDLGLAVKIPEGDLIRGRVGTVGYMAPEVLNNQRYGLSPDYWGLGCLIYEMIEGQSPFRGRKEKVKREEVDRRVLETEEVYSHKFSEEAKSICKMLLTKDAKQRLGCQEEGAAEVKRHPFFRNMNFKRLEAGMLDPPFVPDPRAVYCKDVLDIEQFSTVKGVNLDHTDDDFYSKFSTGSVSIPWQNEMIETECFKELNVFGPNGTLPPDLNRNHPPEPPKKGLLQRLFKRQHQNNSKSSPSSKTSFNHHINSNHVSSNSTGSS
Method: Samples were mixed with Protein Thermal Shift dye to measure unfolding as a function of temperature. The Tm values were subtracted by the Tm of GRK5 in the same condition without the addition of salt to obtain ΔTm. Error bars correspond to SD (box) from three or more replicates (circles). […] Orange corresponds to GRK5 with Sgv and pink with AMP in buffer alone (20 mM Hepes [pH 7.2], 2 mM MgCl2). A one-tailed t test was used to determine significance (ns: p > 0.05, ∗p ≤ 0.05, ∗∗p ≤ 0.01, ∗∗∗p ≤ 0.001, and ∗∗∗∗p ≤ 0.0001). GRK, G protein–coupled receptor kinase; ns, not significant; Sgv, sangivamycin.
Full-length WT GRK5, GRK2, or GRK6 at a final concentration of 2 μM in the absence or the presence of different ligands were mixed with the Protein Thermal Shift Dye at a final concentration of 1X in buffer containing 20 mM Hepes (pH 7.2), 2 mM MgCl2, and 1 mM TCEP in addition to different concentrations of salts. The melting points were measured using a QuantStudio5 Real-Time PCR System in a 384-well transparent plate with a final reaction volume of 10 μl per well. […] Ligands including ATP, AMP–PNP, ADP, AMP, and Sgv were added at a final concentration of 5 mM. Readouts were measured and analyzed with Protein Thermal Shift Software to obtain Boltzmann Tm values. At least three replicates of individual runs from the same preparation of protein were performed to obtain the mean and standard deviation of Tm values.

human GRK5WT = molecular target: T4, human GRK5WT (Homo sapiens, UniProt P34947); assay: GRK kinase inhibition assay ([γ-32P]-ATP phosphorylation of tubulin or Rho*); type: biochemical; settings: for change in inhibition potency caused by K3Cit: GRK5 phosphorylation of tubulin and Rho*
T4 construct: human GRK5WT or GRK5D311N (residues 1–590 followed by a hexahistidine tag); hexahistidine (C); made in house; host or cells: E. coli Rosetta (DE3)
T4 sequence (P34947 whole entry, the tested form may be a part): as above
Method: as §1, with “Data were analyzed via GraphPad Prism (GraphPad Software, Inc), and three-parameter dose-dependent curves (Hill coefficient = −1) plotting phosphate transferred against inhibitor concentration were used for the calculation of IC50 values.” left out

[1] = IC50 no K3Cit vs with 2 mM K3Cit, substrate tubulin
[2] = IC50 no K3Cit vs with 6 mM K3Cit, substrate Rho* in ROS
[3] = read-out: IC50 (no K3Cit), substrate Rho* in ROS, without K3Cit, mean and SD
[4] = read-out: IC50 (no K3Cit), substrate tubulin, without K3Cit, mean and SD

Compound | GRK2 (Hill slope) (GRK2) | IC50 (GRK2) [mM] | GRK6 (Hill slope) (GRK6) | IC50 (GRK6) [mM] | effect of salt on Tm of ATP·Mg2+-bound GRK5 (GRK5; in the presence of ATP·Mg2+) | effect of salt on Tm of GRK5 (GRK5) | Fold-change (human GRK5WT; [1]) | Fold-change (human GRK5WT; [2]) | increase of Tm of GRK5 upon ligand binding (GRK5) | also measured
O.O=C([O-])CC(O)(CC(=O)[O-])C(=O)[O-].[K+].[K+].[K+] [K3Cit, potassium citrate tribasic monohydrate] | −1.3 | 0.8 ± 0.5 | −0.9 | 0.9 ± 0.5 | biphasic behavior | raised the Tm of GRK5 proportionally |  |  |  | decrease of Tm of GRK5 (GRK5; in the presence of ATP·Mg2+, 20 mM K3Cit): 2 to 3 °C; effect of salt on Tm of Sgv-bound GRK5 (GRK5; in the presence of Sgv): further increased
O=C([O-])CC(O)(CC(=O)[O-])C(=O)[O-].[Na+].[Na+].[Na+] [Na3Cit, sodium citrate] | −1.6 | 0.7 ± 0.2 | −1.2 | 1.3 ± 0.9 |  |  |  |  |  | 
Nc1ncnc2c1ncn2[C@@H]1O[C@H](COP(=O)(O)O)[C@@H](O)[C@H]1O [AMP] |  |  |  |  |  |  | 1.5 | 2 | does not stabilize GRK5 as much as Sgv | change in inhibition potency caused by K3Cit (human GRK5WT): did not cause changes; IC50 (human GRK5WT; [3]): 1 ± 0.1 mM; IC50 (human GRK5WT; [4]): 0.7 ± 0.2 mM
[Cl-].[Na+] [NaCl] | −1.2 | 21 ± 2 | −1.3 | 8 ± 7 | decreased | reduced it |  |  |  | 
[Cl-].[K+] [KCl] | −1.6 | 20 ± 2 | −2.3 | 14 ± 4 | decreased | did not increase GRK5 stability at any concentration |  |  |  | lower potency than the corresponding citrate salts (human GRK5WT; GRK5, tubulin as the substrate): about 35 fold; GRK5 (Hill slope) (human GRK5WT; substrate Rho* (LMNG)): −1.6; IC50 (human GRK5WT; substrate Rho* (LMNG), mean ± SD, read-out: GRK5 IC50): 11 ± 2 mM; GRK5 (Hill slope) (human GRK5WT; substrate Rho* (ROS)): −1.9; IC50 (human GRK5WT; substrate Rho* (ROS), mean ± SD, read-out: GRK5 IC50): 18 ± 10 mM; GRK5 (Hill slope) (human GRK5WT; substrate tubulin): −1.7; IC50 (human GRK5WT; substrate tubulin, mean ± SD, read-out: GRK5 IC50): 55 ± 6 mM
NC(=O)c1cn([C@@H]2O[C@H](CO)[C@@H](O)[C@H]2O)c2ncnc(N)c12 [Sgv, sangivamycin] |  |  |  |  |  |  | 8 | 6 | 5 °C | reduction of the apparent IC50 by K3Cit (human GRK5WT; GRK5 phosphorylation of tubulin, 2 mM K3Cit): eightfold; IC50 (human GRK5WT; IC50 (no K3Cit), substrate Rho* in ROS, without K3Cit, mean and SD): 0.0045 ± 0.0005 mM; IC50 (human GRK5WT; IC50 (no K3Cit), substrate tubulin, without K3Cit, mean and SD): 0.011 ± 0.003 mM; increase of potency of inhibition by K3Cit (human GRK5WT; tubulin and receptor Rho* phosphorylation): ~8 fold
Nc1ncnc2c1ncn2[C@@H]1O[C@H](COP(=O)(O)OP(=O)(O)O)[C@@H](O)[C@H]1O [ADP] |  |  |  |  |  |  | 3 | 1.5 |  | change in inhibition potency caused by K3Cit (human GRK5WT): did not cause changes; IC50 (human GRK5WT; [3]): 0.056 ± 0.006 mM; IC50 (human GRK5WT; [4]): 0.028 ± 0.001 mM
Nc1ncnc2c1ncn2[C@@H]1O[C@H](COP(=O)(O)OP(=O)([O-])OP(=O)([O-])O)[C@@H](O)[C@H]1O.[Mg+2] [ATP·Mg^2+] |  |  |  |  |  |  |  |  | 9 °C | 
